From US8962685B2 (Vireo Systems Inc., priority 2003, dated 2015)

What was measured:
[1] = Plasma uptake and relative bioavailability after oral administration in healthy human volunteers (Example 3); settings: for Plasma creatine following administration: oral 5 gram dose, versus pre-dose
Excerpt: The order of treatment was randomly assigned and there was a 1-week wash out period between creatine treatments.

[2] = Stability of creatine in aqueous solution over 45 days (Example 4)
Excerpt: With regard to latent product storage, standard shelf-life according to the FDA is considered to be the time it takes for 10 percent of the starting material to degrade in a given sample. […] Each data point is representative of three different samples. […] The creatine content of each sample was examined over a 45-day period.

[3] = cited from earlier work

SMILES	Plasma creatine following administration [1]	original creatine remaining in the aqueous solution ([2]; room temperature (about 21° C.), 45 days, initially 1.5 mg/mL)	standard degradation time in water [3]	increase in bioavailability ([1]; in vivo, po)	shelf-life in aqueous solution (time for 10 percent to degrade) ([2]; 1.5 mg/mL)	original creatine remaining in the aqueous solution ([2]; buffer, 1080 h, 1.5 mg/mL)
CN(CC(=O)O)C(=N)N.O [creatine monohydrate]	significantly elevated	about 75%	–	–	–	–
CCOC(=O)CN(C)C(=N)N [creatine ethyl ester]	–	–	less than one	–	–	–
CN(CC(=O)O)C(=N)N.Cl [creatine HCl, creatine hydrochloride]	significantly elevated	–	–	approximately 50%	≥ 45 days	approximately 95%
